# Reference: the METLIN SMRT retention time set (Domingo-Almenara et al. 2019)
# Experiment: gradient 5% acetonitrile 3 min, to 50% in 2 min, to 85% in 15 min, held 3 min, 100 µL/min
# Details: column: Zorbax Extend-C18 2.1 x 50 mm; eluents: water / acetonitrile, 0.1% formic acid
# How it was run: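 Over 3 months, pure standards in mixtures of ~100 molecules were run by HPLC coupled to a quadrupole time-of-flight mass spectrometer in positive and negative ionization mode. The column was a Zorbax Extend-C18 (2.1 × 50 mm, 1.8 μm) at 100 μL/min, eluted with water and acetonitrile each holding 0.1% formic acid, with 40 μL dead and 900 μL dwell volumes. Retention time was determined from adduct peaks chosen by software and checked manually.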
row,SMILES,RP-LC retention time
1,CC(NC(=O)c1ccc2nc(-c3ccc(Cl)cc3)cn2c1)c1ccccn1 (centres undefined),635 s
2,CCNC(=O)c1n[nH]c2c1CCCC2,641 s
3,CCCNC(=O)C1CCN(c2ccc(SCC(=O)Nc3cc(C)ccc3OC)nn2)CC1,700 s
4,O=C(Cn1cnc2nc(N3CCCC(C(=O)NC4CC4)C3)sc2c1=O)NCc1ccc(F)cc1 (centres undefined),669 s
5,O=C(Nc1ccc(N2CCN(c3ccccc3)C2=O)nc1)c1ccc(F)c(F)c1,989 s
6,O=C1NCCCCCN(C(=O)c2cnccn2)[C@H]2CCC[C@@H]12,620 s
7,COc1cccc(CNC(=O)CCC2CCN(c3cc(NC4CC4)ncn3)CC2)c1,575 s
8,CNC(=O)c1ccccc1Nc1nc(Nc2ccc(N3CCOCC3)cc2OC)ncc1Cl,722 s
9,CC(C)CNC(=O)CCn1c(=O)c2ccccc2n2c(=O)n(Cc3cccc(F)c3)nc12,867 s
10,Cc1ccc(F)cc1S(=O)(=O)N1CCC(n2c(-c3ccco3)nc3cccnc32)C1 (centres undefined),910 s
11,O=C(CCn1nnc2cc(-c3noc(Cc4cccc(F)c4)n3)ccc21)N1CCCC1,855 s
12,COc1ccc(-c2noc(-c3nc(-c4ccccc4F)no3)n2)cc1OC,1110 s
13,CCOC(=O)C1=CN(Cc2ccccc2)C=C(C(=O)OCC)C1c1ccccc1,1130 s
14,Cc1c2cnn(CC(=O)N3CCN(c4ccccn4)CC3)c(=O)c2c(C)n1Cc1ccccc1F,650 s
15,O=C(Nc1ccc(F)cc1)OCCOc1ccc([N+](=O)[O-])cc1,1030 s
16,CCCC(=O)Nc1ccc(CCc2nc3ccc(C(=O)NCc4ccco4)cc3[nH]2)cc1,635 s
17,Cc1cc(=O)oc2c(C)c(OCC(O)CN3CCC(C(N)=O)CC3)ccc12 (centres undefined),579 s
18,CCn1cc(C(=O)Nc2cccc(C)c2)c(S(=O)(=O)N2CCSCC2)n1,902 s
19,Cc1c(S(=O)(=O)N2CCN(c3ccccn3)CC2)cc(-c2nc(-c3ccccc3)cs2)n1C,885 s
20,CCOC(=O)c1noc2nc(C)nc(N(C)Cc3ccccc3)c12,1060 s
21,COc1nn(C)cc1C(=O)NCC1(c2ccc(F)cc2)CC1,751 s
22,O=C([C@@H]1C[C@H](F)CN1S(=O)(=O)c1ccc(F)cc1)N1CCCCC1,784 s
23,COc1ccc(-c2noc(C3CCCN3C(=O)c3ccc(OC)nc3)n2)cc1 (centres undefined),879 s

row,SMILES,RP-LC retention time
1,CCSc1nnc(-c2nn(C)c3c2CN(S(=O)(=O)Cc2ccccc2Cl)CC3)n1CC,960 s
2,O=c1n(CCc2ccccc2)nc2ccc(S(=O)(=O)N3CCCC3)cn12,868 s
3,COc1ccccc1-c1nnc(-c2cc(S(=O)(=O)N(C)C)ccc2Cl)o1,904 s
4,CC(=O)Nc1ccc(C(=O)NCc2ccc(C)o2)c(N2CCOCC2)c1,684 s
5,COc1ccc(C(=O)Nc2c(-c3ccc(F)cc3)nc3cc(C)ccn23)cc1OC,647 s
6,COc1cc(Cl)c(C)cc1NC(=O)C1CCCN(c2nc3ccccc3nc2OC)C1 (centres undefined),1380 s
7,CCn1cc(SCC(=O)Nc2c(C)cc(C)cc2C)c2ccccc21,998 s
8,COc1cc(OC)cc(-c2nnc(Cc3nc(-c4ccccc4F)no3)o2)c1,907 s
9,CCc1nn2c(CNS(=O)(=O)c3ccc(F)c(F)c3)c(-c3ccccc3)nc2s1,982 s
10,COc1ccc(CC(=O)Nc2ccc3c(c2)Sc2ncccc2C(=O)N3C)cc1Cl,807 s
11,O=C(NCc1ccccc1)c1cccn1Cc1noc(-c2ccccc2)n1,981 s
12,O=C(c1ccc(N2CCCC2)nn1)N1CCN(c2ncccn2)CC1,548 s
13,O=C(Nc1ccc(N2CCN(Cc3ccc(F)cc3)C2=O)nc1)c1ccsc1,787 s
14,Cc1ccc(S(=O)(=O)Nc2ccc(C)n(CC(=O)O)c2=O)cc1,694 s
15,Nc1ccc(Br)cc1Br,1000 s
16,CCCN(CC1CCOC1)S(=O)(=O)Cc1ccccc1F (centres undefined),878 s
17,Cc1ccc(CNC(=O)CCn2nc(C)c3c(C)n(-c4ccccc4)nc3c2=O)o1,734 s
18,COC(=O)N1CCN(CCNC(=O)NC2CCCCC2)CC1,503 s
19,Cc1ccc2c(C(=O)NCCc3cccnc3)cc(NC(=O)C(C)C)cc2n1,550 s
20,COc1ccc(-c2cc3nn(CC(=O)Nc4cccc(Cl)c4)c(=O)n3c(C)n2)cc1,979 s
21,COc1ccc(-n2ccc(=O)c(-c3nc(-c4ccc(Cl)c(F)c4)no3)n2)cc1,993 s
22,O=C(c1cnn2c(-c3ccc4c(c3)OCO4)ccnc12)N1CCN(Cc2ccc3c(c2)OCO3)CC1,648 s
23,O=C(Cc1nc(-c2ccccn2)n[nH]1)Nc1cccc(Cl)c1,673 s

row,SMILES,RP-LC retention time
1,O=C1NC2(CCN(C(=O)Nc3ccccc3F)CC2)N=C1c1cccc(Cl)c1,839 s
2,CCCn1c(=O)c(C)nc2cc(-c3noc(-c4ccc(C#N)cc4)n3)ccc21,1080 s
3,CC(C)n1c(=O)oc2cc(S(=O)(=O)N3CCN(C(=O)C4(c5ccccc5)CC4)CC3)ccc21,902 s
4,N#Cc1ccc(S(=O)(=O)N2CCC(Cc3nc(-c4ccncc4)n[nH]3)C2)cc1 (centres undefined),620 s
5,COC(=O)c1cnc2nc(C)ccc2c1Nc1ccc(C)cc1C,699 s
6,Cc1ccc2sc(N(Cc3ccccn3)C(=O)C3COc4ccccc4O3)nc2c1C (centres undefined),1250 s
7,Cc1ccn2c(NC(=O)c3cccc(C(F)(F)F)c3)c(-c3ccc(F)cc3)nc2c1,752 s
8,O=C(Cn1ncccc1=O)NCc1ccco1,542 s
9,COc1nn(C)cc1C(=O)NCc1cc(-c2ccco2)on1,644 s
10,O=C(CN1C(=O)C(C(=O)N2CCCC2)Sc2ccccc21)NCc1cccc(Br)c1 (centres undefined),972 s
11,CCN1C(=O)c2cccnc2Sc2cc(CNC(=O)c3sc(C)nc3C)ccc21,681 s
12,CCN(CC)S(=O)(=O)c1ccc(Cl)c(-c2nnc(-c3ccccc3)o2)c1,1120 s
13,COc1ccc(NC(=O)C2CC(=O)N(c3ccc4c(c3)CCN4C(=O)C3CC3)C2)cc1 (centres undefined),740 s
14,O=C(NCc1ccccc1F)C1CCCN(c2nnc3c(Cl)cccn23)C1 (centres undefined),710 s
15,CCOc1ccc(NC(=O)c2cc3c(=O)n(CC)ccc3n2C)cc1,757 s
16,CCC(C(=O)N1CCN(C)CC1)n1c2ccccc2c2cnn(C)c(=O)c21 (centres undefined),627 s
17,O=C(NCC1CC1)C1CCN(c2ncnc3c2oc2ccccc23)CC1,678 s
18,CC(NC(=O)c1ccc(OC(F)(F)F)cc1)C(=O)N1CCN(c2ccccn2)CC1 (centres undefined),643 s
19,O=S(=O)(NCc1cccs1)c1cc(-c2noc(C3CCCC3)n2)cs1,1110 s
20,Cn1cccc1C(=O)N1CC(c2nc(CCOCC3CCCC3)no2)C1,934 s
21,Cn1cc(S(=O)(=O)N2CCC(C(=O)N3CCCCC3)CC2)cc1C(=O)N1CCCC1,688 s
22,Cc1cccc(OCCCC(=O)Nc2nc(-c3ccc(Br)cc3)cs2)c1,1260 s
23,COc1ccccc1CCC(=O)N1CCn2c(C)nnc2C1,607 s

row,SMILES,RP-LC retention time
1,COc1ccccc1-c1noc(-c2nn(-c3ccc(Cl)cc3)ccc2=O)n1,832 s
2,O=C(CNC(=O)c1c[nH]c2ccccc12)NCCC1=CCCCC1,710 s
3,CCCN1C(=O)c2ccccc2C(C(=O)N2CCOCC2)C1c1cc(OC)c(OC)c(OC)c1 (centres undefined),684 s
4,Cc1ccc(C)c2c(=O)c3c([nH]c12)CCN(CC(=O)Nc1ccc(F)cc1F)C3,648 s
5,O=C(Cc1ccsc1)NCC1CCCCC(=O)N1 (centres undefined),619 s
6,O=C(Nc1ccccc1)N(Cc1nnc2n1CCCCC2)c1ccc2c(c1)OCO2,703 s
7,Cc1ccn2cc(C(=O)NCCCN3CCCC3=O)nc2c1,535 s
8,CC(=O)Nc1c(C(=O)Nc2ccc(Cl)cc2)nnn1-c1ccccc1,838 s
9,CC1CCC2(CC1)N=C(N1CCN(c3ncccn3)CC1)NC(=O)C2C#N (centres undefined),649 s
10,Cc1nn(-c2ccccc2)c2nc(N3CCCC(C(=O)Nc4cccc(Br)c4)C3)sc12 (centres undefined),1300 s
11,O=C(Nc1cccc(-c2noc(C3CCC3)n2)c1)c1cccs1,1060 s
12,CCCNC(=O)N1CCCC(c2nn(C)c(=O)n2CC)C1 (centres undefined),602 s
13,Cc1ccc(CNC(=O)c2ccccc2CN2C(=O)C3CCCN3C(=O)c3ccccc32)o1 (centres undefined),741 s
14,CCCS(=O)(=O)c1nc2ccc(NS(=O)(=O)c3cccc(F)c3)cc2s1,918 s
15,Cc1cc(C)n(CCNC(=O)C(=O)Nc2ccc(Cl)cn2)n1,692 s
16,CSc1cccc(NC(=O)C2CCCN(C(=O)c3cc(C)cc(C)c3)C2)c1 (centres undefined),1010 s
17,COc1ccc(-c2noc(-c3nc(C(C)C)no3)n2)cc1OC,1050 s
18,COc1ccc(-c2csc(C)n2)cc1S(=O)(=O)N(C)c1cccc(C)c1,1050 s
19,O=C(c1nnc(-c2ccc(S(=O)(=O)N3CCOCC3)cc2)o1)N1CCN(c2ccccc2)CC1,905 s
20,CC(C)CNC(=O)C1CCN(c2nc3ccc(-c4cccnc4)nc3s2)CC1,640 s
